# Measurements from US6737383B1, “Herbicidal oxadiazolidines” (priority 1999, dated 2004).
# Assays:
# pigweed = assay: Test B pre/postemergence pigweed; type: in vivo, Amaranthus retroflexus
# How it was run: (§1)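 Herbicidal effect was estimated by eye on a ten-point control scale after plants spent twelve to sixteen days in a greenhouse following soil or foliar treatment. Foliar sprays targeted plants at one to four leaves; all doses were formulated in a non-phytotoxic solvent with surfactant.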
# surinam grass = assay: Test B pre/postemergence surinam grass; type: in vivo, Brachiaria decumbens; conditions: Postemergence
# How it was run: as §1
# cocklebur = assay: Test B pre/postemergence cocklebur; type: in vivo, Xanthium strumarium
# How it was run: as §1
# giant foxtail = assay: Test B pre/postemergence giant foxtail; type: in vivo, Setaria faberii
# How it was run: as §1
# rape = assay: Test B pre/postemergence rape; type: in vivo, Brassica napus
# How it was run: as §1
# morningglory = assay: Test B pre/postemergence morningglory; type: in vivo, Ipomoea hederacea
# How it was run: as §1
# sugar beet = assay: Test B pre/postemergence sugar beet; type: in vivo, Beta vulgaris
# How it was run: as §1
# purple nutsedge = assay: Test B pre/postemergence purple nutsedge; type: in vivo, Cyperus rotundus
# How it was run: as §1
# crabgrass = assay: Test B pre/postemergence crabgrass; type: in vivo, Digitaria sanguinalis
# How it was run: as §1
# bedstraw = assay: Test B pre/postemergence bedstraw; type: in vivo, Galium aparine
# How it was run: as §1
# soybean = assay: Test B pre/postemergence soybean; type: in vivo, Glycine max
# How it was run: as §1
# wheat = assay: Test B pre/postemergence wheat; type: in vivo, Triticum aestivum
# How it was run: as §1
# blackgrass = assay: Test B pre/postemergence blackgrass; type: in vivo, Alopecurus myosuroides
# How it was run: as §1
# velvetleaf = assay: Test B pre/postemergence velvetleaf; type: in vivo, Abutilon theophrasti
# How it was run: as §1
# wild oat = assay: Test B pre/postemergence wild oat; type: in vivo, Avena fatua
# How it was run: as §1
# corn = assay: Test B pre/postemergence corn; type: in vivo, Zea mays
# How it was run: as §1
# [1] = Postemergence, Rate 125 g/ha, scale of 0 to 10 where 0 is no effect and 10 is complete control
# [2] = Postemergence, Rate 500 g/ha, scale 0 (no effect) to 10 (complete control)
# [3] = Postemergence, Rate 1000 g/ha, scale 0 to 10 (0 no effect, 10 complete control)
# [4] = Rate 125 g/ha, Preemergence, scale 0 to 10 (0 no effect, 10 complete control)
# [5] = Rate 250 g/ha, Postemergence, scale 0 to 10, 0 is no effect, 10 is complete control
# [6] = Rate 500 g/ha, Preemergence, scale 0 to 10 (0 no effect, 10 complete control)
# [7] = Rate 1000 g/ha, Preemergence, scale 0 to 10 (0 no effect, 10 complete control)
# [8] = Preemergence, Rate 250 g/ha, scale 0 (no effect) to 10 (complete control)
smiles,measurement,setting,value
COC(=O)N(C)CCn1c(=O)on(C(=O)N(c2ccccc2)C(C)C)c1=O [Compound 775],Redroot pigweed plant response rating,pigweed; [1],3
same,Redroot pigweed plant response rating,pigweed; [2],3
same,Redroot pigweed plant response rating,pigweed; [3],6
same,Redroot pigweed plant response rating,pigweed; [4],0
same,Redroot pigweed plant response rating,pigweed; [5],3
same,Redroot pigweed plant response rating,pigweed; [6],9
same,"Plant response rating, Redroot pigweed",pigweed; [7],10
same,B. signalgrass plant response rating,"surinam grass; Rate 125 g/ha, scale of 0 to 10 where 0 is no effect and 10 is complete control",2
same,B. signalgrass plant response rating,"surinam grass; Rate 1000 g/ha, scale 0 to 10 (0 no effect, 10 complete control)",9
same,B. signalgrass plant response rating,"surinam grass; Rate 250 g/ha, scale 0 to 10, 0 is no effect, 10 is complete control",3
same,B. signalgrass plant response rating,"surinam grass; Rate 500 g/ha, scale 0 to 10, 0 is no effect, 10 is complete control",3
same,Cocklebur plant response rating,cocklebur; [1],0
same,Cocklebur plant response rating,cocklebur; [2],0
same,Cocklebur plant response rating,cocklebur; [3],0
same,Cocklebur plant response rating,cocklebur; [8],0
same,Cocklebur plant response rating,cocklebur; [4],0
same,Cocklebur plant response rating,cocklebur; [5],0
same,Cocklebur plant response rating,cocklebur; [6],0
same,"Plant response rating, Cocklebur",cocklebur; [7],0
same,Giant foxtail plant response rating,giant foxtail; [1],7
same,Giant foxtail plant response rating,giant foxtail; [2],9
same,Giant foxtail plant response rating,giant foxtail; [3],9
same,Giant foxtail plant response rating,giant foxtail; [8],10
same,Giant foxtail plant response rating,giant foxtail; [4],9
same,Giant foxtail plant response rating,giant foxtail; [5],7
same,Giant foxtail plant response rating,giant foxtail; [6],10
same,"Plant response rating, Giant foxtail",giant foxtail; [7],10
same,Rape plant response rating,rape; [1],0
same,Rape plant response rating,rape; [2],0
same,Rape plant response rating,rape; [3],0
same,Rape plant response rating,rape; [4],0
same,Rape plant response rating,rape; [5],0
same,Rape plant response rating,rape; [6],0
same,"Plant response rating, Rape",rape; [7],7
same,Morningglory plant response rating,morningglory; [1],5
same,Morningglory plant response rating,morningglory; [2],6
same,Morningglory plant response rating,morningglory; [3],8
same,Morningglory plant response rating,morningglory; [4],0
same,Morningglory plant response rating,morningglory; [5],6
same,Morningglory plant response rating,morningglory; [6],2
same,"Plant response rating, Morningglory",morningglory; [7],5
same,Sugarbeets plant response rating,sugar beet; [2],0
same,Sugarbeets plant response rating,sugar beet; [4],0
same,Sugarbeets plant response rating,sugar beet; [5],0
same,Sugarbeets plant response rating,sugar beet; [6],3
same,"Plant response rating, Sugarbeets",sugar beet; [7],3
same,Nutsedge plant response rating,purple nutsedge; [1],0
same,Nutsedge plant response rating,purple nutsedge; [3],0
same,Nutsedge plant response rating,purple nutsedge; [4],0
same,Nutsedge plant response rating,purple nutsedge; [5],0
same,Nutsedge plant response rating,purple nutsedge; [6],0
same,"Plant response rating, Nutsedge",purple nutsedge; [7],9
same,Crabgrass plant response rating,crabgrass; [1],3
same,Crabgrass plant response rating,crabgrass; [2],9
same,Crabgrass plant response rating,crabgrass; [3],9
same,Crabgrass plant response rating,crabgrass; [8],9
same,Crabgrass plant response rating,crabgrass; [4],9
same,Crabgrass plant response rating,crabgrass; [5],7
same,Crabgrass plant response rating,crabgrass; [6],10
same,"Plant response rating, Crabgrass",crabgrass; [7],10
same,Bedstraw plant response rating,bedstraw; [1],0
same,Bedstraw plant response rating,bedstraw; [2],7
same,Bedstraw plant response rating,bedstraw; [3],7
same,Bedstraw plant response rating,bedstraw; [8],0
same,Bedstraw plant response rating,bedstraw; [4],0
same,Bedstraw plant response rating,bedstraw; [5],2
same,Bedstraw plant response rating,bedstraw; [6],2
same,"Plant response rating, Bedstraw",bedstraw; [7],2
same,Soybean plant response rating,soybean; [2],6
same,Soybean plant response rating,soybean; [4],0
same,Soybean plant response rating,soybean; [5],6
same,Soybean plant response rating,soybean; [6],1
same,"Plant response rating, Soybean",soybean; [7],2
same,Wheat plant response rating,wheat; [2],0
same,Wheat plant response rating,wheat; [4],0
same,Wheat plant response rating,wheat; [5],0
same,Wheat plant response rating,wheat; [6],8
same,"Plant response rating, Wheat",wheat; [7],9
same,Blackgrass plant response rating,blackgrass; [1],0
same,Blackgrass plant response rating,blackgrass; [2],7
same,Blackgrass plant response rating,blackgrass; [3],4
same,Blackgrass plant response rating,blackgrass; [8],9
same,Blackgrass plant response rating,blackgrass; [4],5
same,Blackgrass plant response rating,blackgrass; [5],4
same,Blackgrass plant response rating,blackgrass; [6],10
same,"Plant response rating, Blackgrass",blackgrass; [7],10
same,Velvetleaf plant response rating,velvetleaf; [2],2
same,Velvetleaf plant response rating,velvetleaf; [4],0
same,Velvetleaf plant response rating,velvetleaf; [5],2
same,Velvetleaf plant response rating,velvetleaf; [6],0
same,"Plant response rating, Velvetleaf",velvetleaf; [7],4
same,Wild oats plant response rating,wild oat; [2],0
same,Wild oats plant response rating,wild oat; [4],2
same,Wild oats plant response rating,wild oat; [5],0
same,Wild oats plant response rating,wild oat; [6],8
same,"Plant response rating, Wild oats",wild oat; [7],9
same,Corn plant response rating,corn; [1],0
same,Corn plant response rating,corn; [2],0
same,Corn plant response rating,corn; [3],0
same,Corn plant response rating,corn; [8],0
same,Corn plant response rating,corn; [4],0
same,Corn plant response rating,corn; [5],0
same,Corn plant response rating,corn; [6],3
same,"Plant response rating, Corn",corn; [7],4
